Assay results published in article PMC12769565, “Design, synthesis and biological activity of glycoconjugated ADAMTS5 exosite inhibitors: applications in osteoarthritis and ovarian cancer models” (Scientific Reports, 2025).
Each block holds one compound with its values, some of them ahead of it.

Tests used:
[1] = system: HEK293; parameters: method as in ChEMBL; details: ref ChEMBL, cited from earlier work; for EC50: read-out: EC50 (Standard Value)
[2] = system: human non-OA chondrocytes; assay: Cell viability MTS assay; type: cell-based; details: 100 µM; 72 h; vs DMSO control
Procedure: Non-OA human chondrocytes were isolated from knee cartilage tissues obtained from the Stanmore BioBank, Institute of Orthopaedics, Royal National Orthopaedic Hospital, Stanmore, UK, from 3 donors following informed consent and approval by the Royal Veterinary College Ethics and Welfare Committee (Institutional approval URN 2012 0048 H) as before.
(§1) Cell viability was assessed using CellTiter® 96 Aqueous One Solution Cell Proliferation Assay (Promega, G3582) following the manufacturer’s protocol. The assay is based on the reduction of [3-(4,5-dimethylthiazol-2-yl)-5-(3-carboxymethoxyphenyl)-2-(4-sulfophenyl)-2 H-tetrazolium] (MTS) and phenazine ethosulfate into formazan. Compounds 2 and 4b, GM6001 (Merck, 364206) (10–100 µM), or DMSO control were incubated in 48-well Nunc™ plates (Thermo Fisher Scientific,150687) with HEK293T cells, human non-OA chondrocytes, porcine cartilage explants, or human OA cartilage explants for 72 h. At least 3 independent experiments were carried out with 3 technical replicates each. For experiments involving human samples, independent experiments were carried out on 3 different donors. Absorbance at 490 nm was measured on a SpectraMax i3x Multi-Mode Platform (Molecular Devices). Cell viability was normalized to DMSO controls.

[3] = system: porcine cartilage explants; assay: Cell viability MTS assay; type: cell-based, pig; details: 100 µM; 72 h; vs DMSO control
Procedure: Porcine articular cartilage from the joints of 3–9 month old pigs was supplied by a local abattoir within 2 h of slaughter and dissected into small pieces approximately 3 mm long and 3–4 mm wide. Each piece weighed roughly 10 mg. After dissection, the cartilage was allowed to acclimatize for 24 h at 37 °C under 5% CO2 in Dulbecco’s Modified Eagle Medium (DMEM) containing 100 U/ml penicillin, 100 µg/ml streptomycin, 10% fetal bovine serum (FBS).
as §1

[4] = system: HEK293T cells; assay: Cell viability MTS assay; type: cell-based, human; details: 100 µM; 72 h; vs DMSO control
Procedure: as §1

[5] = system: ADAMTS5; details: reported zinc-chelating inhibitors; cited from earlier work
[6] = biological target: T1, ADAMTS4 (Homo sapiens, UniProt O75173); assay: QF peptide cleavage assay (peptidolytic activity); type: biochemical; details: compared to DMSO control
T1 construct: Human recombinant full-length FLAG-tagged ADAMTS4 and ADAMTS5 were expressed in HEK293T cells; FLAG; made in house; host or cells: HEK293T cells
T1 sequence (O75173 213-837): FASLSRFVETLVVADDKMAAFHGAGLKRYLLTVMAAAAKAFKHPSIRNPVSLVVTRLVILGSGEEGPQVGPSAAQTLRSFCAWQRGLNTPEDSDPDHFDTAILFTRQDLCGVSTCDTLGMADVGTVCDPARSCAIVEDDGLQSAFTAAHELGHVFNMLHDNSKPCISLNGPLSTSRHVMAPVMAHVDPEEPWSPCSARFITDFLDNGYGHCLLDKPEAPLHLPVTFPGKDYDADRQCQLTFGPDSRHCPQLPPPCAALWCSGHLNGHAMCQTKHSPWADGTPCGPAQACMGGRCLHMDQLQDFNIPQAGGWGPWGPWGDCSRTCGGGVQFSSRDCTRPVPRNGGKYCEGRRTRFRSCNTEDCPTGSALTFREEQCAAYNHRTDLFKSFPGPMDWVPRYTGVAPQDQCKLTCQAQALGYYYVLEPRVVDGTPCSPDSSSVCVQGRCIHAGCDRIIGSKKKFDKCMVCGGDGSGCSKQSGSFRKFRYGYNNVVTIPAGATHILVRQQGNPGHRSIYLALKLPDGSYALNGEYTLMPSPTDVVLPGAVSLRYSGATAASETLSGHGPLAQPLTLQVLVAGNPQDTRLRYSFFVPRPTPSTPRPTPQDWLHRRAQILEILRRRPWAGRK
Procedure: (§2) Human recombinant full-length FLAG-tagged ADAMTS4 and ADAMTS5 were expressed in HEK293T cells (Thermo Fisher Scientific) and purified by anti-FLAG immunoaffinity chromatography as before. Concentrations of active proteases were determined by active-site titrations with known concentrations of TIMP-3 (Bio-Techne, 973-TM-010), using QF peptides as substrates. V1-5GAG, a truncated version of versican V1 isoform comprising residues 21–694 and containing a C-terminal 6x His tag[67], was expressed in HE293T cells and purified by immobilized metal affinity chromatography as before.
QF peptide cleavage assays were conducted in TNC-B (50 mM Tris–HCl, pH 7.5, 150 mM NaCl, 10 mM CaCl2, and 0.02% NaN3) on a SpectraMax i3x Multi-Mode Platform (Molecular Devices, UK) in a total volume of 20 µl at 37℃ as before. ADAMTS4 (3.5 nM) or ADAMTS5 (4 nM) were incubated with compounds 1–4 (100 µM, diluted in TNC-B from 10 mM DMSO stocks) or DMSO for 1 h at 37 ℃ before addition of QF peptides fluorescein-5(6)-carbonyl-[…]N, N,N0,N0-tetramethyl-6-carboxyrhodamine, and fluorescein-5(6)-carbonyl-Thr-Glu-Ser-Glu - […]N, N,N0,N0-tetramethyl-6-carboxyrhodamine, respectively, each at 40 µM. Fluorescence intensity was recorded with an excitation wavelength of 485 nm and an emission wavelength of 535 nm every min for 2 h, expressed as relative fluorescence units and normalized against a blank containing only buffer and substrate. Fluorescence values were converted into residual activity by fixing as 100% the activity of the reactions containing an equal concentration (v/v) of DMSO instead of compound (DMSO control).

[7] = biological target: T1, ADAMTS4; assay: Versicanase assay (V1-5GAG, versikine sandwich ELISA); type: biochemical; details: compared to DMSO control
Procedure: as §2
Compounds 1–4 (100 µM) or DMSO were incubated with ADAMTS4 (5 nM) or ADAMTS5 (0.4 nM) for 2 h at 37 °C, before addition of V1-5GAG (50 nM). At each time point, reactions were stopped by addition of ethylenediaminetetraacetic acid and ADAMTS-generated versican fragments (versikine) quantified by sandwich ELISA as before[29],[30],[38] using anti-DPEAAE neoepitope antibody (Life Technologies, PA1-1748 A, 5 µg/ml) and polyclonal anti-versican antibody (Abcam, ab171887, 3 µg/ml). For each reaction, the amount of versikine generated was derived from a standard curve (0–1.56 nM) of V1-5GAG completely digested with ADAMTS5. Initial velocities were calculated from the concentration of versikine generated as a function of reaction time. Percent of inhibition was calculated from the DMSO control reactions. IC50 values were determined using the formula: vi/v0 = 1/(1 + [I]/IC50) where vi is the initial velocity of substrate cleavage in the presence of the inhibitor at concentration [I] and v0 is the initial velocity in the presence of an equal concentration (v/v) of DMSO.

SMILES: O=C(/C=C/c1ccc(O)cc1)CC(=O)/C=C/c1ccc(O)cc1 [CHEMBL105350]
- EC50 [1]: 200 µM

SMILES: CNC(=O)[C@H](Cc1c[nH]c2ccccc12)NC(=O)[C@@H](CC(=O)NO)CC(C)C [GM6001, reference compound]
- inhibition of cell viability [2]: No significant effect
- decrease of cell viability [3]: did not exhibit cytotoxicity
- inhibition of cell viability [4]: Neither 2, nor the broad-spectrum zinc-chelating metalloproteinase inhibitor GM6001[40] had an effect on cell viability

SMILES: C=CCCNc1nc(NCc2csc(-c3cccs3)n2)nc(N2CCC[C@@H]2CNS(=O)(=O)c2ccc(CCC)cc2)n1 [C]
- IC50 [5]: 30 nM

- inhibition at 100 µM [6]: 42%
SMILES: CCC(C)N(Cc1cn(CCCCCCO[C@@H]2O[C@H](CO)[C@@H](O)[C@H](O)[C@H]2NC(C)=O)nn1)S(=O)(=O)c1ccc(-c2ccccc2)cc1 (stereo partly drawn) [compound 1, N-((2R,3R,4R,5 S,6R)-2-((6-(4-((N-(sec-butyl)-[1,1’-biphenyl]-4-sulfonamido)methyl)-1H-1,2,3-triazol-1-yl)hexyl)oxy)-4,5-dihydroxy-6-(hydroxymethyl)tetrahydro-2 H-pyran-3-yl)acetamide]

SMILES: CC1C(NS(=O)(=O)N2CCc3c(nc4cc(F)ccn34)C2)(C(=O)O)C1(C)c1ccccc1 (centres unmarked) [A]
- IC50 [5]: 8.4 nM

SMILES: COc1cc(/C=C/C(=O)CC(=O)/C=C/c2ccc(O)c(O)c2)ccc1O [CHEMBL103410]
- EC50 [1]: 36 µM

SMILES: C[C@H]1CN(C(=O)CC[C@@]2(C3CC3)NC(=O)NC2=O)CCN1c1cc(F)cc(F)c1 [B, GLPG 1972]
- IC50 [5]: 19 nM

- inhibition at 100 µM [7]: 64%
SMILES: CCC(C)N(Cc1cn(CCCO[C@@H]2O[C@H](CO[C@@H]3O[C@H](CO)[C@@H](O[C@@H]4O[C@H](CO)[C@H](O)[C@H](O)[C@H]4O)[C@H](O)[C@H]3O)[C@@H](O)[C@H](O)[C@H]2NC(C)=O)nn1)S(=O)(=O)c1ccc(-c2ccccc2)cc1 (stereo partly drawn) [compound 4, N-((2R,3R,4R,5 S,6R)-2-(3-(4-((N-(sec-butyl)-[1,1’-biphenyl]-4-sulfonamido)methyl)-1 H-1,2,3-triazol-1-yl)propoxy)-6-((((2R,3R,4R,5 S,6R)-3,4-dihydroxy-6-(hydroxymethyl)-5-(((2 S,3R,4 S,5R,6R)-3,4,5-trihydroxy-6-(hydroxymethyl)tetrahydro-2 H-pyran-2-yl)oxy)tetrahydro-2 H-pyran-2-yl)oxy)methyl)-4,5-dihydroxytetrahydro-2 H-pyran-3-yl)acetamide]

SMILES: O=C(/C=C/c1ccccc1)c1ccc(O)cc1O [CHEMBL105310]
- IC50 ([1]; read-out: IC50 (Standard Value)): 109 µM
